Target: T1, human GABAA α5β3*γ2s receptors (Homo sapiens, UniProt P18507+P31644)
T1 construct: expressed in transfected cells
Assay: In vitro inhibition of 3H-flumazenil binding, HEK cells expressing the human GABAA α5β3*γ2S receptor
Method: When the cultures reach confluency, the DMEM is removed and the cells are washed (10 ml for T175 flasks; 50 ml for roller bottles) once in Dulbecco's Phosphate Buffered Saline (DPBS). Following addition of DPBS to the cultures (10 ml for T175 flasks; 100 ml for roller bottles) for approximately 5 min cells are easily detached from the surface by shaking or tapping the flask gently. The cell suspension is transferred to Falcon tubes and centrifuged at 23,500×g for 10 min at 2° C. The pellet is washed once in 15 ml Tris-citrate buffer (50 mM, pH 7.1) using an Ultra-Turrax homogenizer and centrifuged at 2° C. for 10 min at 27,000×g. The washed pellet is re-suspended in 15 ml Tris-citrate buffer and frozen at −80° C. until the day of the binding experiment.
On the day of the experiment the cell membrane preparation is thawed and centrifuged at 2° C. for 10 min at 27,000×g.
Non-specific binding is determined using clonazepam (1 μM, final concentration). […]
The amount of radioactivity on the filters is determined by conventional liquid scintillation counting using a […]
where B is the binding in percentage of total specific binding; C is the concentration of test compound; and n is the Hill coefficient. […] The IC50 value is calculated from the concentration response curves by the non-linear regression method using the curve-fitting program GraphPad Prism.

T1 sequence (P31644 32-462): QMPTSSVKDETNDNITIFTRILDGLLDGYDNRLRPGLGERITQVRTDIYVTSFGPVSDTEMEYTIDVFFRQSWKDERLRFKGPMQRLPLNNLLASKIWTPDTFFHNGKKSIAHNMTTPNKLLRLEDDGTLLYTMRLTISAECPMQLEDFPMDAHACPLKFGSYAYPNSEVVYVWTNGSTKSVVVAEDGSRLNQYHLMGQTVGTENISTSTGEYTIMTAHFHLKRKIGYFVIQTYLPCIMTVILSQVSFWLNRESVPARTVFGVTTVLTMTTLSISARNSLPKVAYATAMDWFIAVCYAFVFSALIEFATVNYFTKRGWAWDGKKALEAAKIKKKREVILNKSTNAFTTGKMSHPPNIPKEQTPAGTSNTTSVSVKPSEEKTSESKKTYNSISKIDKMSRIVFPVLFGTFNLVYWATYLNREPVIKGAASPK
T1 sequence (P18507 40-467 isoform P18507-1 limits assumed): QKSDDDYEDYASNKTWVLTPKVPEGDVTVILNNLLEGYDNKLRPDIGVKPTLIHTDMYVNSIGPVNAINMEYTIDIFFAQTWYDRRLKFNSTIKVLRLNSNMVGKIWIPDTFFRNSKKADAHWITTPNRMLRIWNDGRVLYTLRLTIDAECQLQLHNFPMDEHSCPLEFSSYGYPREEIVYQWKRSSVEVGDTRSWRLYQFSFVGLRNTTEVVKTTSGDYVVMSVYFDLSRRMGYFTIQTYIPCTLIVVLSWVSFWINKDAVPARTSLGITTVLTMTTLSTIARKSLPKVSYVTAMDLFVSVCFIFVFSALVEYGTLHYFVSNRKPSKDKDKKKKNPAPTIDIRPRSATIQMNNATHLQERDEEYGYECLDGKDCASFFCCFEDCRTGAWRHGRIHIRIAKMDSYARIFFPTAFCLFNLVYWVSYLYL

With `NC(=O)c1ccc(OCc2c(C(F)F)nnn2-c2ccc(F)cc2)nn1` [Compound 1, 6-[[5-(difluoromethyl)-3-(4-fluorophenyl)triazol-4-yl]methoxy]pyridazine-3-carboxamide] the Ki was 87 nM.

Reference: US9884848B2, “Phenyl triazole derivative and its use for modulating the GABAA receptor complex” (SANIONA A/S, priority 2012, dated 2018)
